Measurements as given in US20250145665A1, “MACROCYCLIC PEPTIDES USEFUL AS MODULATORS OF TNF ALPHA” (Bristol-Myers Squibb Company, priority 2023, published 2025).
Positions of bridges follow the written chain, without caps; N, C: chain ends. Non-standard residues stand in square brackets, D forms with d. Residues, ends and D or L forms follow the SMILES beside them. Ala(morpholin-4-yl) = N[C@@H](CN1CCOCC1)C(=O)O; Bip = N[C@@H](Cc1ccc(-c2ccccc2)cc1)C(=O)O; Phe(4-NH2) = Nc1ccc(C[C@H](N)C(=O)O)cc1; Val(3-OH) = CC(C)(O)[C@H](N)C(=O)O; 2Pal = N[C@@H](Cc1ccccn1)C(=O)O; 3Pal = N[C@@H](Cc1cccnc1)C(=O)O; Sar = CNCC(=O)O

Molecular target: TNFα (Homo sapiens, UniProt P01375)
Sequence (P01375 77-233 limits assumed): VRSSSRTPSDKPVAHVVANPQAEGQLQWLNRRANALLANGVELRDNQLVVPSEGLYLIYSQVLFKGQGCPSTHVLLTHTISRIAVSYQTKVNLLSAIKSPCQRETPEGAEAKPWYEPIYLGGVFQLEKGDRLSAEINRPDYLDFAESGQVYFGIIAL
Assay: TNF-Induced HEK-Blue Assay
Type: cell-based
Conditions: HEK-Blue-CD40L cells, NF-kB-driven secreted alkaline phosphatase reporter; TNFα 0.5 ng/ml; 18 h; read-out: TNF induced HEK-Blue assay IC50 value

IC50, 0.05 to 0.2 µM:
CC(C)C[C@@H]1NC(=O)[C@H](Cc2ccc(O)cc2)NC(=O)[C@H](C(C)C)NC(=O)[C@H](Cc2cccnc2)NC(=O)[C@H](C(C)C)NC(=O)[C@H](CCCNC(=N)N)NC(=O)[C@H](CC(=O)O)NC(=O)[C@H](Cc2ccc(O)cc2)NC(=O)CN(C)C(=O)[C@H](Cc2ccc(-c3ccccc3)cc2)NC(=O)[C@H](Cc2ccc(-c3ccccc3)cc2)NC(=O)[C@H](CN2CCOCC2)NC(=O)CSC[C@@H](C(=O)NCC(N)=O)NC1=O [Example 107] ({CH2CO}-[Ala(morpholin-4-yl)][Bip][Bip][Sar]YDRV[3Pal]VYLCG-NH2; thioether N-13)
CC(C)C[C@@H]1NC(=O)[C@H](CCCNC(=N)N)NC(=O)[C@H](C(C)C)NC(=O)[C@H](Cc2ccccn2)NC(=O)[C@H](C(C)C)NC(=O)[C@H](CCCNC(=N)N)NC(=O)[C@H](CC(=O)O)NC(=O)[C@@H]2CCCN2C(=O)CN(C)C(=O)[C@H](Cc2ccc(-c3ccccc3)cc2)NC(=O)[C@H](Cc2ccc(-c3ccccc3)cc2)NC(=O)[C@H](C(C)(C)O)NC(=O)CSC[C@@H](C(=O)NCC(N)=O)NC1=O [Example 108] ({CH2CO}-[Val(3-OH)][Bip][Bip][Sar]PDRV[2Pal]VRLCG-NH2; thioether N-13)
CC(C)C[C@@H]1NC(=O)[C@H](Cc2ccc(O)cc2)NC(=O)[C@H](C(C)C)NC(=O)[C@@H]2CCCN2C(=O)[C@H](Cc2ccc(O)cc2)NC(=O)[C@H](CCCNC(=N)N)NC(=O)[C@H](CC(=O)O)NC(=O)[C@H](Cc2ccc(O)cc2)NC(=O)CN(C)C(=O)[C@H](Cc2ccc(-c3ccccc3)cc2)NC(=O)[C@H](Cc2ccc(-c3ccccc3)cc2)NC(=O)[C@H](C(C)(C)O)NC(=O)CSC[C@@H](C(=O)NCC(N)=O)NC1=O [Example 110] ({CH2CO}-[Val(3-OH)][Bip][Bip][Sar]YDRYPVYLCG-NH2; thioether N-13)

IC50, 0.2 to 2 µM:
CC(C)C[C@@H]1NC(=O)[C@H](Cc2ccc(O)cc2)NC(=O)[C@H](C(C)C)NC(=O)[C@H](Cc2ccccn2)NC(=O)[C@H](C(C)C)NC(=O)[C@H](CCCNC(=N)N)NC(=O)[C@H](CC(=O)O)NC(=O)[C@H](Cc2ccc(O)cc2)NC(=O)CN(C)C(=O)[C@H](Cc2ccc(-c3ccccc3)cc2)NC(=O)[C@H](Cc2ccc(-c3ccccc3)cc2)NC(=O)[C@H](CN2CCOCC2)NC(=O)CSC[C@@H](C(=O)NCC(N)=O)NC1=O [Example 109] ({CH2CO}-[Ala(morpholin-4-yl)][Bip][Bip][Sar]YDRV[2Pal]VYLCG-NH2; thioether N-13)
CC(C)C[C@@H]1NC(=O)[C@H](Cc2ccc(O)cc2)NC(=O)[C@H](C(C)C)NC(=O)[C@@H]2CCCN2C(=O)[C@H](Cc2ccc(O)cc2)NC(=O)[C@H](CCCNC(=N)N)NC(=O)[C@H](CC(=O)O)NC(=O)[C@@H]2CCCN2C(=O)CN(C)C(=O)[C@H](Cc2ccc(-c3ccccc3)cc2)NC(=O)[C@H](Cc2ccc(-c3ccccc3)cc2)NC(=O)[C@H](C(C)(C)O)NC(=O)CSC[C@@H](C(=O)NCC(N)=O)NC1=O [Example 111] ({CH2CO}-[Val(3-OH)][Bip][Bip][Sar]PDRYPVYLCG-NH2; thioether N-13)
CC(C)C[C@@H]1NC(=O)[C@H](Cc2ccc(O)cc2)NC(=O)[C@H](C(C)C)NC(=O)[C@@H]2CCCN2C(=O)[C@H](Cc2ccc(N)cc2)NC(=O)[C@H](CCCNC(=N)N)NC(=O)[C@H](CC(=O)O)NC(=O)[C@H](Cc2ccc(O)cc2)NC(=O)CN(C)C(=O)[C@H](Cc2ccc(-c3ccccc3)cc2)NC(=O)[C@H](Cc2ccc(-c3ccccc3)cc2)NC(=O)[C@H](CN2CCOCC2)NC(=O)CSC[C@@H](C(=O)NCC(N)=O)NC1=O [Example 112] ({CH2CO}-[Ala(morpholin-4-yl)][Bip][Bip][Sar]YDR[Phe(4-NH2)]PVYLCG-NH2; thioether N-13)
